Data: patent publication US20260083851A1 (AVILAR THERAPEUTICS, INC., priority 2022, published 2026)
Like-named read-outs stand apart in the source and are kept apart here.

Experiments:
[1] = biological target: T1, ASGPR (Homo sapiens, UniProt P07306); test: ASGPR SPR binding
T1 construct: biotin (biotinylated)
T1 sequence (P07306 1-291): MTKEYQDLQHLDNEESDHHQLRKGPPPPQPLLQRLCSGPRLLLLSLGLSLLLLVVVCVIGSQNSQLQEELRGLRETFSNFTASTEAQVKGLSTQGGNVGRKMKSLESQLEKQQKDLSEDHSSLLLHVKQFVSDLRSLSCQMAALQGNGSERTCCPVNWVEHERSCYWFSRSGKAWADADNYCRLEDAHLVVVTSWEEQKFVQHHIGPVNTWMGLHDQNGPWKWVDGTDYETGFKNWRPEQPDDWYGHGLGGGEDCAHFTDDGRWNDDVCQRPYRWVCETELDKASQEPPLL

[2] = biological target: T2, ASGPR receptor on HepG2 cells (ternary complex with AF488-labeled antibody) (Homo sapiens, UniProt P07306); test: Ternary complex formation assay (flow cytometry, cell-associated AF488 fluorescence); assay type: cell-based; settings: 100 nM AF488-labeled antibody, 1 hour at 4° C.
T2 construct: host or cells: HepG2
T2 sequence (P07306 1-291): T1 sequence (P07306 1-291)
T2 sequence (P07307 1-311 partner): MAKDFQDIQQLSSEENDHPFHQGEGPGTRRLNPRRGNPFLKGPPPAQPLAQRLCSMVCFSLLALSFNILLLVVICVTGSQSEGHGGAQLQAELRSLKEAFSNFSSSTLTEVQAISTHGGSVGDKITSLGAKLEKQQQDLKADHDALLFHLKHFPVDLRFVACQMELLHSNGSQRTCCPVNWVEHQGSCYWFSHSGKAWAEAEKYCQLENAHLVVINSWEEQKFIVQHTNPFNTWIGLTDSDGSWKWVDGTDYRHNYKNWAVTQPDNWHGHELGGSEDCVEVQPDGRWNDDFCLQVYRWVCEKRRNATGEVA

[3] = test system: HepG2 cells; test: Cellular uptake assay (high-content imaging); assay type: cell-based, human; settings: 100 nM AF488-labeled antibody, 6 hours at 37° C.
Description: The cellular uptake assay is designed to measure compound-mediated cellular uptake of fluorescently labeled antibody following ternary complex formation with the ASGPR receptor and endocytosis of the entire complex into cells. The optimal concentration of compound will result in the maximum number of cells with intracellular antibody and is represented as the peak ratio of antibody-positive cells over the total number of cells. As with the ternary complex formation assay, too much or too little compound will result in suboptimal complex formation and fewer cells will have measurable intracellular fluorescence.
Human IgG (Sigma-Aldrich, 14506) was covalently labeled with Alexa Fluor 488 using the Alexa Fluor™ 488 Protein Labeling Kit (Thermo Fisher, A10235) following the manufacturer's instructions. HepG2 cells were plated in DMEM supplemented with 10% FBS at 5,000 cells per well in a 96-well microtiter plate and incubated for approximately 18 hours at 37° C./5% CO2. For studies using human IgG, 100 nM AF488-labeled human IgG antibodies and serial dilutions of IgG-based degrader (0.1% DMSO final concentration) were added to the cells and the mixture was incubated at 37° C. for 6 hours. For studies using DNP, 100 nM AF488-labeled DNP antibodies and serial dilutions of DNP-based degrader (0.1% DMSO final concentration) were added to the cells and the mixture was incubated at 37° C. for 6 hours. HepG2 cells were fixed in 100% methanol at −20° C. for 20 min, washed 3× with PBS, then stained with DAPI (Thermo, Cat #H3570). HepG2 cells were imaged for DAPI and Alexa Fluor 488 using the Operetta CLS, high-content analysis system (PerkinElmer). Data is presented as the ratio of the number of cells positive for hIgG or DNP (AF-488 fluorescence) over the total cell number (measured by DAPI).

[4] = biological target: IgG; test: IgG SPR binding
[5] = Table 3, read-out: ASGPR SPR Binding KD
[6] = Table 3, class symbols, read-out: Ternary Complex EC50
[7] = Homo sapiens, Table 3, class symbols, read-out: Uptake Assay (EC50)
[8] = Table 3, read-out: IgG SPR Binding KD
[9] = second table, read-out: ASGPR KD
[10] = the 25th table, class symbols, read-out: TCF EC50
[11] = the 25th table, class symbols, read-out: Uptake EC50
[12] = Table 3, numeric bounds, read-out: Ternary Complex EC50

SMILES	Kd [1, 5]	EC50 [2, 6]	EC50 [3, 7]	Kd [4, 8]	Kd [1, 9]	EC50 [2, 10]	EC50 ([3]; Homo sapiens, the 25th table, class symbols, read-out: Uptake EC50)	Kd ([4]; second table, read-out: IgG KD)	EC50 [3, 11]	EC50 [2, 12]	EC50 ([3]; Homo sapiens, Table 3, numeric bounds, read-out: Uptake Assay (EC50))
CC(C)C[C@@H]1NC(=O)[C@H](Cc2cnc[nH]2)NC(=O)[C@H](Cc2c[nH]c3ccccc23)NC(=O)[C@H](C)NC(=O)[C@@H]2CSSC[C@H](NC(=O)[C@H](Cc3c[nH]c4ccccc34)NC(=O)[C@H](C(C)C)NC(=O)[C@H](CC(C)C)NC(=O)[C@H](CCC(=O)O)NC(=O)CNC1=O)C(=O)N[C@@H]([C@@H](C)O)C(=O)N1CCC[C@@H]1C(=O)N1C[C@H](NC(=O)c3ccc(N4CCC(CN5CCN(C[C@H]6OC[C@H](Nc7nc(C(F)(F)F)ccc7F)[C@@H](O)[C@H]6O)CC5)CC4)cc3)C[C@H]1C(=O)N[C@@H](CC(=O)O)C(=O)N2 [compound 30]	< 100 nM	100 to 500 nM	100 to 500 nM	< 100 nM	–	–	–	–	–	–	–
CC(C)C[C@@H]1NC(=O)[C@H](Cc2cnc[nH]2)NC(=O)[C@H](Cc2c[nH]c3ccccc23)NC(=O)[C@H](C)NC(=O)[C@@H]2CSSC[C@H](NC(=O)[C@H](Cc3c[nH]c4ccccc34)NC(=O)[C@H](C(C)C)NC(=O)[C@H](CC(C)C)NC(=O)[C@H](CCC(=O)O)NC(=O)CNC1=O)C(=O)N[C@@H]([C@@H](C)O)C(=O)N1CCC[C@@H]1C(=O)N1C[C@H](NC(=O)CNC(COCCC(=O)NCCOCCOCCOCCOC[C@H]3OC[C@H](Nc4cncc(C(F)(F)F)n4)[C@@H](O)[C@H]3O)COCCC(=O)NCCOCCOCCOCCOC[C@H]3OC[C@H](Nc4cncc(C(F)(F)F)n4)[C@@H](O)[C@H]3O)C[C@H]1C(=O)N[C@@H](CC(=O)O)C(=O)N2 [compound 97]	–	–	–	–	< 100 nM	< 100 nM	< 100 nM	< 100 nM	–	–	–
CC(C)C[C@@H]1NC(=O)[C@H](Cc2cnc[nH]2)NC(=O)[C@H](Cc2c[nH]c3ccccc23)NC(=O)[C@H](C)NC(=O)[C@@H]2CSSC[C@H](NC(=O)[C@H](Cc3c[nH]c4ccccc34)NC(=O)[C@H](C(C)C)NC(=O)[C@H](CC(C)C)NC(=O)[C@H](CCC(=O)O)NC(=O)CNC1=O)C(=O)N[C@@H]([C@@H](C)O)C(=O)N1CCC[C@@H]1C(=O)N1C[C@H](NC(=O)c3ccc(N4CCC(CN5CCN(C[C@H]6OC[C@H](Nc7cccc(C(F)(F)F)n7)[C@@H](O)[C@H]6O)CC5)CC4)cc3)C[C@H]1C(=O)N[C@@H](CC(=O)O)C(=O)N2 [compound 29]	< 100 nM	< 100 nM	100 to 500 nM	< 100 nM	–	–	–	–	–	–	–
CC(C)C[C@@H]1NC(=O)[C@H](Cc2cnc[nH]2)NC(=O)[C@H](Cc2c[nH]c3ccccc23)NC(=O)[C@H](C)NC(=O)[C@@H]2CSSC[C@H](NC(=O)[C@H](Cc3c[nH]c4ccccc34)NC(=O)[C@H](C(C)C)NC(=O)[C@H](CC(C)C)NC(=O)[C@H](CCC(=O)O)NC(=O)CNC1=O)C(=O)N[C@@H]([C@@H](C)O)C(=O)N1CCC[C@@H]1C(=O)N1C[C@@H](NC(=O)COCCOCC(=O)NC[C@H]3OC[C@H](Nc4nc(C(F)(F)F)ccc4F)[C@@H](O)[C@H]3O)C[C@H]1C(=O)N[C@@H](CC(=O)O)C(=O)N2 [compound 33]	100 to 500 nM	< 100 nM	< 100 nM	< 100 nM	–	–	–	–	–	–	–
CC(C)C[C@@H]1NC(=O)[C@H](Cc2cnc[nH]2)NC(=O)[C@H](Cc2c[nH]c3ccccc23)NC(=O)[C@H](C)NC(=O)[C@@H](NC(=O)[C@H](CC(=O)O)NC(=O)CCOCCOCCOCCOCCNC(=O)CCCc2cn(CCCCCC(=O)NC(CCCCC(=O)NCCOCCOCCOCCOC[C@H]3OC[C@H](Nc4nccc(C(F)(F)F)n4)[C@@H](O)[C@H]3O)COCCC(=O)NCCOCCOCCOCCOC[C@H]3OC[C@H](Nc4nccc(C(F)(F)F)n4)[C@@H](O)[C@H]3O)nn2)CSSC[C@@H](C(=O)N[C@H](C(N)=O)[C@@H](C)O)NC(=O)[C@H](Cc2c[nH]c3ccccc23)NC(=O)[C@H](C(C)C)NC(=O)[C@H](CC(C)C)NC(=O)[C@H](CCC(=O)O)NC(=O)CNC1=O (stereo partly drawn) [compound 90]	–	–	–	–	< 100 nM	< 100 nM	–	< 100 nM	< 100 nM	–	–
CC(C)C[C@@H]1NC(=O)[C@H](Cc2cnc[nH]2)NC(=O)[C@H](Cc2c[nH]c3ccccc23)NC(=O)[C@H](C)NC(=O)[C@@H]2CSSC[C@H](NC(=O)[C@H](Cc3c[nH]c4ccccc34)NC(=O)[C@H](C(C)C)NC(=O)[C@H](CC(C)C)NC(=O)[C@H](CCC(=O)O)NC(=O)CNC1=O)C(=O)N[C@@H]([C@@H](C)O)C(=O)N1CCC[C@@H]1C(=O)N1C[C@@H](NC(=O)c3ccc(N4CCC(CN5CCN(C[C@H]6OC[C@H](Nc7cccc(C(F)(F)F)n7)[C@@H](O)[C@H]6O)CC5)CC4)cc3)C[C@H]1C(=O)N[C@@H](CC(=O)O)C(=O)N2 [compound 26]	< 100 nM	< 100 nM	< 100 nM	< 100 nM	–	–	–	–	–	–	–
CC(C)C[C@@H]1NC(=O)[C@H](Cc2cnc[nH]2)NC(=O)[C@H](Cc2c[nH]c3ccccc23)NC(=O)[C@H](C)NC(=O)[C@@H](NC(=O)[C@H](CC(=O)O)NC(=O)CCOCCOCCOCCOCCNC(=O)CCCc2cn(CCCCCC(=O)NC(COCCC(=O)NCCOCCOCCOCCO[C@@H]3O[C@H](CO)[C@H](O)[C@H](O)[C@H]3Nc3cncc(C(F)(F)F)n3)COCCC(=O)NCCOCCOCCOCCO[C@@H]3O[C@H](CO)[C@H](O)[C@H](O)[C@H]3Nc3cncc(C(F)(F)F)n3)nn2)CSSC[C@@H](C(=O)N[C@H](C(N)=O)[C@@H](C)O)NC(=O)[C@H](Cc2c[nH]c3ccccc23)NC(=O)[C@H](C(C)C)NC(=O)[C@H](CC(C)C)NC(=O)[C@H](CCC(=O)O)NC(=O)CNC1=O [compound 93]	–	–	–	–	< 100 nM	< 100 nM	–	< 100 nM	< 100 nM	–	–
CC(C)C[C@@H]1NC(=O)[C@H](Cc2cnc[nH]2)NC(=O)[C@H](Cc2c[nH]c3ccccc23)NC(=O)[C@H](C)NC(=O)[C@@H]2CSSC[C@H](NC(=O)[C@H](Cc3c[nH]c4ccccc34)NC(=O)[C@H](C(C)C)NC(=O)[C@H](CC(C)C)NC(=O)[C@H](CCC(=O)O)NC(=O)CNC1=O)C(=O)N[C@@H]([C@@H](C)O)C(=O)N1CCC[C@@H]1C(=O)N1C[C@@H](NC(=O)COCCOCC(=O)NC[C@H]3OC[C@H](Nc4nccc(C(F)(F)F)n4)[C@@H](O)[C@H]3O)C[C@H]1C(=O)N[C@@H](CC(=O)O)C(=O)N2 [compound 34]	> 1000 nM	–	> 1000 nM	< 100 nM	–	–	–	–	–	> 964 nM	–
CC(C)C[C@@H]1NC(=O)[C@H](Cc2cnc[nH]2)NC(=O)[C@H](Cc2c[nH]c3ccccc23)NC(=O)[C@H](C)NC(=O)[C@@H]2CSSC[C@H](NC(=O)[C@H](Cc3c[nH]c4ccccc34)NC(=O)[C@H](C(C)C)NC(=O)[C@H](CC(C)C)NC(=O)[C@H](CCC(=O)O)NC(=O)CNC1=O)C(=O)N[C@@H]([C@@H](C)O)C(=O)N1CCC[C@@H]1C(=O)N1C[C@H](NC(=O)COCCOCC(=O)NC[C@H]3OC[C@H](Nc4nccc(C(F)(F)F)n4)[C@@H](O)[C@H]3O)C[C@H]1C(=O)N[C@@H](CC(=O)O)C(=O)N2 [compound 35]	> 1000 nM	–	–	< 100 nM	–	–	–	–	–	> 10000 nM	> 10000 nM
CC(C)C[C@@H]1NC(=O)[C@H](Cc2cnc[nH]2)NC(=O)[C@H](Cc2c[nH]c3ccccc23)NC(=O)[C@H](C)NC(=O)[C@@H]2CSSC[C@H](NC(=O)[C@H](Cc3c[nH]c4ccccc34)NC(=O)[C@H](C(C)C)NC(=O)[C@H](CC(C)C)NC(=O)[C@H](CCC(=O)O)NC(=O)CNC1=O)C(=O)N[C@@H]([C@@H](C)O)C(=O)N1CCC[C@@H]1C(=O)N1C[C@@H](NC(=O)COCCOCC(=O)NC[C@H]3OC[C@H](Nc4cccc(C(F)(F)F)n4)[C@@H](O)[C@H]3O)C[C@H]1C(=O)N[C@@H](CC(=O)O)C(=O)N2 [compound 25]	500 to 1000 nM	< 100 nM	< 100 nM	–	–	–	–	–	–	–	–
